Test results as given in patent US12234207B2, “Halo-(3-(phenylsulfonyl)prop-1-enyl)pyridine derivative and use thereof” (Cureverse Incorporated, priority 2018, dated 2025).
One block for each compound: values may come before it.

Tests used:
Nrf2 [1] = test: Nrf2 functional cell-based assay (DisoveRx), luminescence; details: for EC50: U2OS cells, 6 hours incubation, concentration that activates by 50% relative to the maximum effect
Description: In order to confirm the pharmacological activity of the compounds synthesized according to Examples 1 to 18 of the present invention, the effects of the synthesized derivatives on inducing the activity of Nrf2, a major regulator of the defense against oxidative stress, were evaluated by constructing an Nrf2 functional cell-based assay (DisoveRx). Specifically, U2OS cells were used, and after the cell pellet was released with CP 0 reagent, the cells were loaded in an amount of 80 μL into a 96-well plate at a density of 1.5×10^4 cells/well and incubated for 24 hours. The compounds synthesized according to Examples 1 to 18 were diluted 3 times in DMSO at 7 different concentrations to prepare a stock solution. 10 μL. of each compound solution was mixed with 90 μL of CP 0 and added in an amount of 20 μL to each well of the 96-well plate, and each experiment was repeated three times. […] Substrate reagents 1 and 2 were added to the cell assay buffer and mixed, and then 50 μL of the substrate reagent was added to a 96-well plate per well, wrapped in foil, and incubated for 1 hour. Thereafter, the luminescence value was measured at all wavelengths and at integration time of 100 ms using a luminescence spectrophotometer (Molecular Devices). […] The results are shown in Table 5 below, and the efficacy of the compounds was compared as a percentage with respect to the sulforaphane-treated group. As another control group, a chalcone derivative, VSC2 ((F)-1-(2-((2-methoxyphenyl)sulfonyl)vinyl)-2-chlorobenzene, Woo et al., J. Med. Chem., 2014, 57:1473-1487), which has a parent structure similar to that of the present invention, and which has been confirmed to induce activation of Nrf2 through the structural changes of Keap1, was used.

CYP 3A4 = molecular target: T1, CYP 3A4 (Homo sapiens, UniProt P08684); test: Inhibition of CYP activity in human liver microsomes, 3A4; assay type: in vitro ADME; details: 10 μM compound, human liver microsomes 0.25 mg/mL; % activity relative to the negative control
T1 construct: from tissue; host or cells: human liver microsomes
Description: (§1) Thereafter, the reaction was terminated by adding an acetonitrile solution containing an internal standard substrate (terfenadine), followed by centrifugation (14,000 rpm, 4° C.) for 5 minutes. Subsequently, the supernatant was injected into the LC-MS/MS system, and the metabolites of the substrate drugs were simultaneously analyzed to evaluate the inhibitory ability of these compounds on drug metabolic enzymes. The metabolites of each CYP isoenzyme indicator drug generated through the above reaction were analyzed using the Shimadzu Nexera XR system and TSQ vantage (Thermo). A Kinetex C18 column was used as the HPLC column, and distilled water containing 0.1% formic acid and acetonitrile containing 0.1% formic acid were used as the mobile phase. The generated metabolites were quantified using the quantification mode of multiple reaction monitoring (MRM), and data were analyzed with Xcalibur (version 1.6.1).

CYP 2D6 = molecular target: T2, CYP 2D6 (Homo sapiens, UniProt P10635); test: Inhibition of CYP activity in human liver microsomes, 2D6; assay type: in vitro ADME; details: 10 μM compound, human liver microsomes 0.25 mg/mL; % activity relative to the negative control
T2 construct: from tissue; host or cells: human liver microsomes
Description: as §1

CYP 2C9 = molecular target: T3, CYP 2C9 (Homo sapiens, UniProt P11712); test: Inhibition of CYP activity in human liver microsomes, 2C9; assay type: in vitro ADME; details: 10 μM compound, human liver microsomes 0.25 mg/mL; % activity relative to the negative control
T3 construct: from tissue; host or cells: human liver microsomes
Description: as §1

CYP 1A2 = molecular target: T4, CYP 1A2 (Homo sapiens, UniProt P05177); test: Inhibition of CYP activity in human liver microsomes, 1A2; assay type: in vitro ADME; details: 10 μM compound, human liver microsomes 0.25 mg/mL; % activity relative to the negative control
T4 construct: from tissue; host or cells: human liver microsomes
T4 sequence (P05177 1-516): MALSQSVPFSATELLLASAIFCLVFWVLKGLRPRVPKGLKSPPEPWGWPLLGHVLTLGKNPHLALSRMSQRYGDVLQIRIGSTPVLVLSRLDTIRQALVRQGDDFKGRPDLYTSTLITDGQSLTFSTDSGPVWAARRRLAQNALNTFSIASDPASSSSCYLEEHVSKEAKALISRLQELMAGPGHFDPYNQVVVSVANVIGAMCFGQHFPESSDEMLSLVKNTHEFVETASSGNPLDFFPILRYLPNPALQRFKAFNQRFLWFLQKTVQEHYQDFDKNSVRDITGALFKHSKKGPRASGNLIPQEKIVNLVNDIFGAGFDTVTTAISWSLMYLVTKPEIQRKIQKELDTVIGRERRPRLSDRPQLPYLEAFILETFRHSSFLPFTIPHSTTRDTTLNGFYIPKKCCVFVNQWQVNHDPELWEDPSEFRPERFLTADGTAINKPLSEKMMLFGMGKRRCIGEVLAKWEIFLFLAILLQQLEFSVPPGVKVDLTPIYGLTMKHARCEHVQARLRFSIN
Description: as §1

CYP 2C19 = molecular target: T5, CYP 2C19 (Homo sapiens, UniProt P33261); test: Inhibition of CYP activity in human liver microsomes, 2C19; assay type: in vitro ADME; details: 10 μM compound, human liver microsomes 0.25 mg/mL; % activity relative to the negative control
T5 construct: from tissue; host or cells: human liver microsomes
Description: as §1

Nrf2 [2] = test: Nrf2 functional cell-based assay (DisoveRx), luminescence; details: relative to Compound 15
Solubility in water = assay type: physicochemical
Text: In the development of new drugs, the solubility of drugs is one of the very important factors associated with the bio-absorption rate. […] In addition, drugs with low solubility may crystallize in tissues or cause serious toxicity, and thus, the FDA requires additional research results on oral drugs with low solubility. Furthermore, low solubility may also be the biggest cause of failure in the development of candidate materials.

T3 sequence (P11712 whole entry): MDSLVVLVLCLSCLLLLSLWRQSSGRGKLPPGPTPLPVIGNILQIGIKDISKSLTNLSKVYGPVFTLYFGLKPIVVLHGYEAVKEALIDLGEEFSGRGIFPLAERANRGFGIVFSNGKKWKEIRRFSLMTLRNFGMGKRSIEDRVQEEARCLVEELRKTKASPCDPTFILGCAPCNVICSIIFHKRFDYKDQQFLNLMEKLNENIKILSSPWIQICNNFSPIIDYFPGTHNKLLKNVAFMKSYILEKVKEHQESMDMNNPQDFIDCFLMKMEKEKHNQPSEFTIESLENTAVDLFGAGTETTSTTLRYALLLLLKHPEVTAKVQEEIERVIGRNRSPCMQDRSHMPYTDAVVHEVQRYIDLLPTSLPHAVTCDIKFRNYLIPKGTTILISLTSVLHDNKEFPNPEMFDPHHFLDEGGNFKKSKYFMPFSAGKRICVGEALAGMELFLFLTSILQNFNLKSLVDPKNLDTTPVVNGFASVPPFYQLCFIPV
T2 sequence (P10635 whole entry): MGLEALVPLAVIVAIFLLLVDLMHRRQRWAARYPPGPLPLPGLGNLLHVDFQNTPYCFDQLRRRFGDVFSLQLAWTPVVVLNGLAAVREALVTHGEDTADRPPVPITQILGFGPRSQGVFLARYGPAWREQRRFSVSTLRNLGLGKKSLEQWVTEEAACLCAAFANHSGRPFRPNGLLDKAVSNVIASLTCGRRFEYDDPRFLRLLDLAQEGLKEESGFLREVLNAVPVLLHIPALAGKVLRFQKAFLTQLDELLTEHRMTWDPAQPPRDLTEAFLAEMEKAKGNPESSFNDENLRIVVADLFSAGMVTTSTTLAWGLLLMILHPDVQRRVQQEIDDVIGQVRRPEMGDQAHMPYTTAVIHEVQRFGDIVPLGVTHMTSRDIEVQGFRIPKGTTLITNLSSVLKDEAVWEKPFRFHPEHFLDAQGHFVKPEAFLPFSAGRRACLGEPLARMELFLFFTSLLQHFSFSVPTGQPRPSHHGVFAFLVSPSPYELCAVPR
T5 sequence (P33261 whole entry): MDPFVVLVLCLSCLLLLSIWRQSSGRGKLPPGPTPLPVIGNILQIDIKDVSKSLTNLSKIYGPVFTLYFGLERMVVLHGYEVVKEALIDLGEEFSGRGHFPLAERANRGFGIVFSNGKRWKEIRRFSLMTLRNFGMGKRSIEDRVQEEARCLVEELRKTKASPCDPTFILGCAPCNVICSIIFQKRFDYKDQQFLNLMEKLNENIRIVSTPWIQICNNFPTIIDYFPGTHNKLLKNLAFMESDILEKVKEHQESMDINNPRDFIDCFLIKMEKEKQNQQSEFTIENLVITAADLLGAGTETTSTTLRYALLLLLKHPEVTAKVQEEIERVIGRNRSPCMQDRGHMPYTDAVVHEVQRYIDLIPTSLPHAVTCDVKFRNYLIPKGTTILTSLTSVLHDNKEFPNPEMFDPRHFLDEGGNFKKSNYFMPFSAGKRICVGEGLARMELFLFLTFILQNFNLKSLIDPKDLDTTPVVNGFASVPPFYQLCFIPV
T1 sequence (P08684 whole entry): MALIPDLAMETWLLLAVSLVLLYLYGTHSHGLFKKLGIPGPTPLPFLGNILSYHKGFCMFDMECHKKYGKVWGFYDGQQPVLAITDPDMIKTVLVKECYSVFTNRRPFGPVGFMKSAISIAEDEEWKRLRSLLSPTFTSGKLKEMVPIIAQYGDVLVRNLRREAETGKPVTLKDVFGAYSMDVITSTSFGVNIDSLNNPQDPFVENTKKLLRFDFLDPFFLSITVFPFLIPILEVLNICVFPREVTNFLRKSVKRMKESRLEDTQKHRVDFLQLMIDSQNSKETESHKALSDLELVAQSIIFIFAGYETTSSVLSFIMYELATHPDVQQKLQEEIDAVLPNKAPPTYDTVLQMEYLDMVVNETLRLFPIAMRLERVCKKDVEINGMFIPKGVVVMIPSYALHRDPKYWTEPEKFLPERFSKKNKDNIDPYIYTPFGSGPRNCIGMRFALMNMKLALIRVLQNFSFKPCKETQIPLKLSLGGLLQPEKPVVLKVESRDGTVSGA

SMILES: O=S(=O)(/C=C/c1ncccc1F)c1ccc(F)cc1 [Compound 3, (E)-3-fluoro-2-(2-(4-fluorophenylsulfonyl)vinyl)pyridine]
EC50 (Nrf2 [1]): 0.542 µM

SMILES: O=S(=O)(/C=C/c1ncccc1Cl)c1cccc(F)c1 [Compound 5, (E)-3-chloro-2-(2-(3-fluorophenylsulfonyl)vinyl)pyridine]
EC50 (Nrf2 [1]): 0.084 µM

SMILES: O=S(=O)(/C=C/c1ncccc1F)c1cccc(F)c1 [Compound 2, (E)-3-fluoro-2-(2-(3-fluorophenylsulfonyl)vinyl)pyridine]
EC50 (Nrf2 [1]): 0.474 µM

SMILES: O=S(=O)(/C=C/c1ncccc1Cl)c1ccc(F)cc1 [Compound 6, (E)-3-chloro-2-(2-(4-fluorophenylsulfonyl)vinyl)pyridine]
EC50 (Nrf2 [1]): 0.231 µM

SMILES: O=S(=O)(/C=C/c1ncccc1F)c1ccccc1F [Compound 1, (E)-3-fluoro-2-(2-(2-fluorophenylsulfonyl)vinyl)pyridine]
EC50 (Nrf2 [1]): 0.176 µM
CYP 3A4 activity (CYP 3A4): 100.0%
CYP 2D6 activity (CYP 2D6): 87.0%
CYP 2C9 activity (CYP 2C9): 100.0%
CYP 1A2 activity (CYP 1A2): 96.0%
CYP 2C19 activity (CYP 2C19): 65.9%

SMILES: O=S(=O)(/C=C/c1ncccc1Cl)c1ccccc1F [Compound 4, (E)-3-chloro-2-(2-(2-fluorophenylsulfonyl)vinyl)pyridine]
EC50 (Nrf2 [1]): 0.03 µM
CYP 3A4 activity (CYP 3A4): 100.0%
CYP 2D6 activity (CYP 2D6): 86.0%
CYP 2C9 activity (CYP 2C9): 62.6%
CYP 1A2 activity (CYP 1A2): 96.0%
CYP 2C19 activity (CYP 2C19): 47.3%

SMILES: CN1CCN(C(=O)COc2ccc(S(=O)(=O)/C=C/c3ncccc3F)cc2)CC1.Cl [Compound 17, (E)-2-(4-(2-(3-fluoropyridin-2-yl)vinylsulfonyl)phenoxy)-1-(4-methylpiperazin-1-yl)ethanone hydrochloride]
CYP 2C9 activity (CYP 2C9): 122.0%

SMILES: COc1ccccc1S(=O)(=O)/C=C/c1cccnc1Cl [Comparative Example 2, (E)-2-chloro-3-(2-(2-methoxyphenylsulfonyl)vinyl)pyridine, reference compound]
Effect of inducing Nrf2 activity as % of the level of Compound 15 (Nrf2 [2]): ~10%
solubility (Solubility in water): < 0.01 mg/mL

More lines, main results first:

EC50 (Nrf2 [1]): 0.198 µM
SMILES: O=S(=O)(/C=C/c1ncccc1F)c1cccc(Cl)c1 [Compound 8, (E)-2-(2-(3-chlorophenylsulfonyl)vinyl)-3-fluoropyridine]

EC50 (Nrf2 [1]): 0.065 µM
SMILES: O=S(=O)(/C=C/c1ncccc1Cl)c1ccc(Cl)cc1 [Compound 12, (E)-3-chloro-2-(2-(4-chlorophenylsulfonyl)vinyl)pyridine]

EC50 (Nrf2 [1]): 0.286 µM
SMILES: O=S(=O)(/C=C/c1ncccc1F)c1ccc(Cl)cc1 [Compound 9, (E)-2-(2-(4-chlorophenylsulfonyl)vinyl)-3-fluoropyridine]

EC50 (Nrf2 [1]): 0.046 µM
SMILES: O=S(=O)(/C=C/c1ncccc1Cl)c1cccc(Cl)c1 [Compound 11, (E)-3-chloro-2-(2-(3-chlorophenylsulfonyl)vinyl)pyridine]

EC50 (Nrf2 [1]): 0.026 µM
SMILES: O=S(=O)(/C=C/c1ncccc1Cl)c1ccccc1Cl [Compound 10, (E)-3-chloro-2-(2-(2-chlorophenylsulfonyl)vinyl)pyridine]
Nrf2 activation effect relative to sulforaphane (Nrf2 [1]; ratio to sulforaphane): ≥ 15 times

EC50 (Nrf2 [1]): 0.122 µM
SMILES: O=S(=O)(/C=C/c1ncccc1F)c1ccccc1Cl [Compound 7, (E)-2-(2-(2-chlorophenylsulfonyl)vinyl)-3-fluoropyridine]

EC50 (Nrf2 [1]): 0.384 µM
SMILES: O=S(=O)(/C=C/c1cccnc1Cl)c1ccccc1Cl [Compound 14, (E)-2-chloro-3-(2-(2-chlorophenylsulfonyl)vinyl)pyridine]

EC50 (Nrf2 [1]): 0.147 µM
CYP 3A4 activity (CYP 3A4): 86.0%
CYP 2D6 activity (CYP 2D6): 100.0%
CYP 2C9 activity (CYP 2C9): 100.0%
CYP 1A2 activity (CYP 1A2): 94.0%
CYP 2C19 activity (CYP 2C19): 40.0%
SMILES: O=S(=O)(/C=C/c1cccc(Cl)n1)c1ccccc1Cl [Compound 13, (E)-2-chloro-6-(2-(2-chlorophenylsulfonyl)vinyl)pyridine]
